Source: patent publication US12103900B2, “Environment-friendly process for selective acylation of aminophenol” (LAXMI ORGANIC INDUSTRIES LTD, priority 2020, dated 2024)

Assay: Analysis of solubility of paracetamol batches (Table 2)
Format: physicochemical
Conditions: limit: soluble in ethanol (95%) and in acetone, sparingly soluble in water, very slightly soluble in dichloro-methane and ether
Protocol: For the analysis of solubility, the paracetamol obtained using the present invention should be soluble in ethanol (95%) and soluble in acetone, sparingly soluble in water, very slightly soluble in dichloro-methane and ether. For identification purpose, the IR spectra should match the standard IR spectrum. The impurities were determined according to European and Indian pharmacopeia.

Solubility: Complies
SMILES: CC(=O)Nc1ccc(O)cc1 [Ex. 9, N-acetyl-para-aminophenol]
